Calls of active or inactive are those of the source. The rule behind the calls is not given here.
Legend:
HCT-116 = experiment: Antiproliferative activity against human HCT116 cells incubated for 48 hrs by SRB assay; assay type: functional; conditions: HCT-116, 48 h
MDA-MB-231 = experiment: Antiproliferative activity against human MDA-MB-231 cells incubated for 48 hrs by SRB assay; assay type: functional; conditions: MDA-MB-231, 48 h
[1] = Antiproliferative activity against human hepatocytes incubated for 48 hrs by SRB assay; assay type: cell-based, Hepatocyte
[2] = Antiproliferative activity against HUVEC incubated for 48 hrs by SRB assay; assay type: cell-based; conditions: human, HUVEC cells
[3] = Antiproliferative activity against NHDF incubated for 48 hrs by SRB assay; assay type: cell-based; conditions: human, NHDF cells
ASPC1 = experiment: Antiproliferative activity against human AsPC1 cells incubated for 48 hrs by SRB assay; assay type: functional; conditions: ASPC1, 48 h
BXPC-3 = experiment: Antiproliferative activity against human BxPC3 cells incubated for 48 hrs by SRB assay; assay type: functional; conditions: BXPC-3, 48 h
HT-29 = experiment: Antiproliferative activity against human HT-29 cells incubated for 48 hrs by SRB assay; assay type: functional; conditions: HT-29, 48 h
REH = experiment: Antiproliferative activity against human REH cells incubated for 48 hrs by SRB assay; assay type: functional
MCF7 = experiment: Antiproliferative activity against human MCF7 cells incubated for 48 hrs by SRB assay; assay type: functional; conditions: MCF7, 48 h
SK-MEL-5 = experiment: Antiproliferative activity against human SK-MEL-5 cells incubated for 48 hrs by SRB assay; assay type: functional; conditions: SK-MEL-5, 48 h
[4] = Antiproliferative activity against human ZR-75 cells incubated for 48 hrs by SRB assay; assay type: functional; conditions: ZR75, 48 h
KB = experiment: Antiproliferative activity against human KB cells incubated for 48 hrs by SRB assay; assay type: functional
Ramos = experiment: Antiproliferative activity against human Ramos cells incubated for 48 hrs by SRB assay; assay type: functional
[5] = Antiproliferative activity against human 33HJ-JA1 cells incubated for 48 hrs by SRB assay; assay type: functional
A549 = experiment: Antiproliferative activity against human A549 cells incubated for 48 hrs by SRB assay; assay type: functional; conditions: A549, 48 h
NCI-H460 = experiment: Antiproliferative activity against human NCI-H460 cells incubated for 48 hrs by SRB assay; assay type: functional; conditions: NCI-H460, 48 h
PC-6 = experiment: Antiproliferative activity against human PC6 cells incubated for 48 hrs by SRB assay; assay type: functional; conditions: PC-6, 48 h
OVCAR-4 = experiment: Antiproliferative activity against human OVCAR4 cells incubated for 48 hrs by SRB assay; assay type: functional; conditions: OVCAR-4, 48 h
OVCAR-3 = experiment: Antiproliferative activity against human OVCAR3 cells incubated for 48 hrs by SRB assay; assay type: functional; conditions: OVCAR-3, 48 h
PC-3 = experiment: Antiproliferative activity against human PC3 cells incubated for 48 hrs by SRB assay; assay type: functional; conditions: PC-3, 48 h
[6] = target: E3 ubiquitin-protein ligase Itchy homolog (Homo sapiens) (UniProt Q96J02); experiment: Inhibition of Itch (unknown origin) assessed as reduction in Itch-mediated ubiquitination in presence of E1 enzyme, E2 enzyme and ATP incubated for 20 mins by SDS-PAGE method
RPMI-8226 [7] = experiment: Antiproliferative activity against human RPMI8226 cells incubated for 48 hrs by SRB assay; assay type: functional, cell-based; conditions: RPMI-8226, 48 h
RPMI-8226 [8] = experiment: Reduction of Itch protein expression in human RPMI8226 cells at 10 uM by Western blot; assay type: functional, cell-based
RPMI-8226 [9] = experiment: Antitumor activity against human RPMI8226 cells xenografted in SCID nude mouse assessed as inhibition of tumor growth at 25 mg/kg, po dosed daily for 45 days; assay type: functional; conditions: RPMI-8226, po, 1080 h, read-out: TGI
RPMI-8226 [10] = experiment: Antitumor activity against human RPMI8226 cells xenografted in SCID nude mouse assessed as inhibition of tumor growth at 50 mg/kg, po dosed daily for 45 days; assay type: functional; conditions: RPMI-8226, po, 1080 h, read-out: TGI
Mus musculus [11] = experiment: Toxicity in human RPMI8226 cells xenografted SCID nude mouse assessed as effect on body weight at 25 mg/kg, po dosed daily for 45 days; assay type: organism-based; conditions: in vivo, 1080 h
Mus musculus [12] = experiment: Toxicity in human RPMI8226 cells xenografted SCID nude mouse assessed as effect on body weight at 50 mg/kg, po dosed daily for 45 days; assay type: organism-based; conditions: in vivo, 1080 h
Mus musculus [13] = experiment: Toxicity in human RPMI8226 cells xenografted SCID nude mouse assessed as induction of adverse events at 25 mg/kg, po dosed daily for 45 days; assay type: organism-based; conditions: in vivo, 1080 h
Mus musculus [14] = experiment: Toxicity in human RPMI8226 cells xenografted SCID nude mouse assessed as induction of adverse events at 50 mg/kg, po dosed daily for 45 days; assay type: organism-based; conditions: in vivo, 1080 h
Homo sapiens [15] = organism: Homo sapiens; experiment: Inhibition of UBE1/UbcH3/SCFSkp2/Cks1/p27 (unknown origin) assessed as protein activity at […] by electrochemiluminescence based ubiquitin profiler panel assay; design: scale not given: the % may be the effect or the level left
Homo sapiens [16] = organism: Homo sapiens; experiment: Inhibition of UBE1/UbcH3/SCFFbw7/Cyclin E1 (unknown origin) assessed as protein activity at […] by electrochemiluminescence based ubiquitin profiler panel assay; design: scale not given: the % may be the effect or the level left

Sequence of E3 ubiquitin-protein ligase Itchy homolog (Homo sapiens) (Q96J02 whole entry): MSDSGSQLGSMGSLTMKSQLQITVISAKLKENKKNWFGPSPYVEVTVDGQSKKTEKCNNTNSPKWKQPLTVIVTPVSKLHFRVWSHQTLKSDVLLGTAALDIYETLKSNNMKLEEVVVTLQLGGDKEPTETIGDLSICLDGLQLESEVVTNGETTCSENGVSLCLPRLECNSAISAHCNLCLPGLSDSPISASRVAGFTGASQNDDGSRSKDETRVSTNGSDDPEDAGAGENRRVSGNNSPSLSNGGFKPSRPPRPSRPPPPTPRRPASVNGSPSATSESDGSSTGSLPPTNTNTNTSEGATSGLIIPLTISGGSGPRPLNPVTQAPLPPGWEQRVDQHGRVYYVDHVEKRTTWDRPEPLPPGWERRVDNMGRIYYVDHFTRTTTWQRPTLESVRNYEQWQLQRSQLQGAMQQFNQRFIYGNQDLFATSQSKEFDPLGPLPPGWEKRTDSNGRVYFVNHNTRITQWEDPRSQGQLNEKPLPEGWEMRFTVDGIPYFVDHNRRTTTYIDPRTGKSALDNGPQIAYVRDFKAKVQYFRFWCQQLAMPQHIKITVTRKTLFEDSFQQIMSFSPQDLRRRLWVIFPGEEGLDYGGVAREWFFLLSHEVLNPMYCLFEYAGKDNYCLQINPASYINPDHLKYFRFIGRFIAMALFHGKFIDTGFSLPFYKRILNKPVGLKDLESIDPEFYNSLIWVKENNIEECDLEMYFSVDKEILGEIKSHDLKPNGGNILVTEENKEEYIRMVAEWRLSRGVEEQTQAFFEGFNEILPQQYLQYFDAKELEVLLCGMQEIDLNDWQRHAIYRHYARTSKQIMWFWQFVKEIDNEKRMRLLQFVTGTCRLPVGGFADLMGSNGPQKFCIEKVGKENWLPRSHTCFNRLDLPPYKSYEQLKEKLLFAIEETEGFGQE

- GI50 (HCT-116): 4.3 µM
- GI50 (MDA-MB-231): 2.9 µM
- GI50 (ASPC1): 4.6 µM
- GI50 (BXPC-3): 1.2 µM
- GI50 (HT-29): 3.8 µM
- GI50 (MCF7): 0.9 µM
- GI50 (SK-MEL-5): 0.21 µM
- GI50 (KB): 4 µM
- GI50 (Ramos): 0.89 µM
- GI50 (A549): > 5 µM
- GI50 (NCI-H460): 2.9 µM
- GI50 (OVCAR-4): 1.4 µM
- GI50 (OVCAR-3): 1.9 µM
- GI50 (PC-3): 2.5 µM
- inhibition [6]: Dose-dependent effect
- IC50 (RPMI-8226 [7]): 2.6 µM
- Activity (Homo sapiens [15]): 85%
- Activity (Homo sapiens [16]): 104%
Structure (SMILES): O=C(Nc1ccncc1)c1ccc(CNC2=C(Cl)C(=O)c3ccccc3C2=O)cc1
- GI50 at 48 h [1]: 30 µM
- GI50 at 48 h [2]: 16 µM
- GI50 at 48 h [3]: 6.3 µM
- GI50 (REH): 2.8 µM
- GI50 [4]: > 5 µM
- GI50 [5]: 1.9 µM
- GI50 (PC-6): 1.8 µM
- Activity (RPMI-8226 [8]): Active
- inhibition in vivo at 25 mg/kg (RPMI-8226 [9]): 98.3%
- inhibition in vivo at 50 mg/kg (RPMI-8226 [10]): 100%
- Activity (Mus musculus [11]): Non-Toxic
- Activity (Mus musculus [12]): Non-Toxic
- Activity (Mus musculus [13]): Non-Toxic
- Activity (Mus musculus [14]): Non-Toxic

— ChEMBL document CHEMBL4130444, “1,4-Naphthoquinones as inhibitors of Itch, a HECT domain-E3 ligase, and tumor growth suppressors in multiple myeloma” (Eur J Med Chem, 2017)
